The nature of data set [1]: acute toxicity (LD50), intraperitoneal route in mice. Type of data set: in vivo. To be noted: mouse, in vivo, ip.
The subject of data set [2] is mice. The data set is described as above. Type of data set: in vivo.
In data set [3] the test system is acetic acid-induced ulcer. The experiment in a line: Acetic acid-induced ulcer (Curative test). To be noted: Table 2; rat, 0.05 ml of 15% acetic acid underneath the serosa; lesion area on 14th day. Type of data set: in vivo, rat (male SD rats). The protocol: (§1) In the case of reserpine-induced ulcer, the assay was performed according to the description in "Arch. Int. Pharmacodym. Ther. 147,113 (1964)", and in the case of acetic acid-induced ulcer, the assay was performed according to the method described in "Jap. J. Pharmac. 19,418 (1969)", by inducing experimental ulcer in rat and evaluating the effect thereon of the compounds tested.
Groups of rats, each consisting of 6 male SD rats weighing 150-200 g were used. The stomach of ether-anesthesized rat was exposed and while taking acre not to injure blood vessels, 0.05 ml of 15% aqueous acetic acid solution was injected underneath the serosa. On the 14th day, the rats were killed with chloroform, the stomach taken out and the area of the infected lesion measured.
The curative ratio was calculated using the above equation: [formula]

Data set [4] relates to reserpine-induced ulcer. Briefly: Reserpine-induced ulcer (Preventive test). The data set is classed as in vivo, rat (male SD rats). To be noted: Table 1; rat, 100 mg/kg oral, 30 min before reserpine 15 mg/kg i.p.; evaluated at 18 h; read-out: Preventive effect (preventive ratio). The protocol:
as §1
Groups of rats, each consisting of 6 male SD rats weighing 150-200 g were used. After 24 hours' fasting, a sample compound was orally administered to the rat at the dose of 100 mg/kg body weight, and 30 minutes after the administration, reserpine was intraperitoneally injected at the dose of 15 mg/kg body weight. Eighteen hours after the administration, the rats were killed with chloroform. The stomach was taken out, and severity of the hemorrhaging lesion was evaluated according to the method as above ("Arch. Int. Pharmacodym. Ther. 147,113 (1964)).
The preventive ratio was calculated using the following equation, [formula] wherein the control animals were intraperitoneally given reserpine only, at the dose of 15 mg/kg body weight.

Where only a bound is given, the exact number is not on record here.

By LD50 is commonly meant the dose expected to kill half of the subjects tested. A low value points to greater toxicity. Turning to `CC(C)=CCCC(C)=CCCC(C)=CCCC(C)=CCCC(C)=CCCC(C)=CCCC(C)=CCCC(C)=CCCC(C)=CCCC(C)=CCCC(=O)O` [Decaprenylacetic acid], the figures for the LD50 in data set [1] (Table 2) and in data set [2] (Table 1) were > 4000 mg/kg and > 4 g/kg, respectively. Moreover, the “Curative effect (curative ratio)” value in data set [3] is “+++ (40%-)”. In addition, in data set [4], the inhibition in vivo at 100 mg/kg fell in the range of 40 to 60%.
As to `CC(C)CCCC(C)CCCC(C)CCCC(C)CCCC(C)CCCC(C)CCCC(C)CCCC(C)CCCC(C)CCCC(C)CCO` (stereo not drawn) [Saturated decaprenol], the LD50 in data set [1] (Table 1) was > 5000 mg/kg; in data set [2] (Table 2), > 5 g/kg. For the same molecule, the “Curative effect (curative ratio)” value in data set [3] was “++ (25%-40%)”. Besides, the inhibition in vivo at 100 mg/kg in data set [4] lay in the range of 10 to 40%.
In the case of `CC(=O)OC/C=C(\C)CCC[C@H](C)CCC[C@H](C)CCCC(C)C` [Phytyl acetate], the LD50 in data set [1] (Table 2) was > 5000 mg/kg; in data set [2] (Table 1) it was > 5 g/kg. In addition, in data set [3], the “Curative effect (curative ratio)” value was “+ (10%-25%)”. Moreover, the inhibition in vivo at 100 mg/kg in data set [4] fell in the range of 40 to 60%.

The values above are taken from US4642314A, “Antiulcer compounds” (Nisshin Flour Milling Co., Ltd., priority 1984, dated 1987).
